Test results taken from patent US8809586B2, “Modafinil compositions” (priority 2004, dated 2014).

Experiment: Solubility measured from an isopropyl acetate slurry, by HPLC
Conditions: solid from solubility samples dried under nitrogen, characterized by PXRD and thermal microscopy

Row | SMILES | Form conversion during solubility procedure
1 | NC(=O)C[S@@+]([O-])C(c1ccccc1)c1ccccc1 [R-(−)-modafinil Form III, R-(−)-2-[(Diphenylmethyl)sulfinyl]acetamide] | Form conversion was not observed
2 | NC(=O)C[S@@+]([O-])C(c1ccccc1)c1ccccc1 [R-(−)-modafinil Form IV, R-(−)-2-[(Diphenylmethyl)sulfinyl]acetamide] | Form conversion was not observed
3 | NC(=O)C[S@@+]([O-])C(c1ccccc1)c1ccccc1 [R-(−)-modafinil Form V, R-(−)-2-[(Diphenylmethyl)sulfinyl]acetamide] | Form conversion was not observed
